In the oligonucleotide strings, read from the 5' end, every base follows the letter of its sugar. An asterisk marks phosphorothioate; unmarked linkages are phosphodiester. Other units and linkages are bracketed, terminal groups are in braces. A string of capitals states the bases alone. e = 2'-O-(2-methoxyethyl) (MOE); [5mC] = 5-methylcytosine; d = 2'-deoxy (DNA)
System: HeLa cells
Assay: Cell cycle assay in HeLa cells
Format: cell-based, human
Settings: for phase of the cell cycle in which cells arrest or delay: HeLa; for % cells aneuploid / % cells in cell cycle phase G1 / % cells in cell cycle phase G2/M / % cells in cell cycle phase S / % cells in cell cycle phase subG1 / % cells in cell cycle phase: G1 / % cells in cell cycle phase: G2/M / % cells in cell cycle phase: S / % cells in cell cycle phase: aneuploid / % cells in cell cycle phase: subG1 / % cells in cell cycle phase aneuploid: HeLa cells; for % cells in cell cycle phase: G1 / % cells in cell cycle phase: G2/M / % cells in cell cycle phase: S / % cells in cell cycle phase: aneuploid / % cells in cell cycle phase: subG1: 48 hours after treatment, relative to untreated control (UTC=100)
Procedure: In some embodiments, HeLa cells were plated on collagen-coated 24-well plates at 50,000-60,000 cells per well, and allowed to attach to wells overnight. In some embodiments, HeLa cells were synchronized by double thymidine block (cells were washed three times with PBS, then grown in 10% FBS containing 2 mM thymidine; then 19 hours later, cells were washed three times in PBS, 10% FBS for 9 hours; cells were then incubated in 10% FBS, 2 mM thymidine for 15 hours; then washed three times with PBS, 10% FBS and samples were taken every two hours over a 16 hour period). A portion of each time sample was fixed with ethanol and treated with propidium iodide and subjected to FACs analysis for determination of the percentage of cells in each phase of the cell cycle. […] HeLa cells treated with 10 μM cisplatin or 100 ng/ml nocodazole were used as controls for G1-phase and late G2/M-phases, respectively. From the remaining portion of each of these time samples, total RNA was isolated and used to assess the expression of cell cycle marker mRNAs using the real-time RT-PCR methods and/or used to screen microarrays to assess the expression of miRNAs over the course of the cell cycle. It was observed that several miRNAs are expressed in a cell-cycle-dependent manner. Shown in Table 30 are the mRNA levels of the E2F1 transcription factor and topoisomerase 2A (Top2A), which vary over the course of the cell cycle and can be used for comparison to the experimental groups for the confirmation of cell cycle phase. Data are an average of three trials.
In some embodiments, HeLa cells were also treated with oligomeric compounds targeting miRNAs. […] The medium was removed from the plates. Each well was washed in 250 μl of PBS. […] Control cells received LIPOFECTIN™ only. […] After 24 hours (Table 31) or 48 hours (Table 32), cells were prepared for flow cytometry analysis to generate a cell cycle profile. The cell cycle profile was analyzed with the ModFit program (Verity Software House, Inc., Topsham Me.).
The random-mer ISIS 29848 (SEQ ID NO: 737) was used as a negative control, and ISIS 183891 (SEQ ID NO: 847), targeting kinesin-like 1/Eg5, was included as a positive control. Data are expressed as percentage of cells in each phase relative to the untreated control (UTC); values above 100 are considered to indicate a delay or arrest in that phase of the cell cycle. […] In some cases, the same oligomeric compound was tested in repeated experiments.
In accordance with the present invention, certain oligomeric compounds targeting miRNAs were selected for dose response studies. Using the cell cycle assay described above, the cell cycle profiles of HeLa or A549 cells treated with varying concentrations of oligomeric compounds of the present invention were assessed.
HeLa cells were treated with 25-, 50-, 100- or 150 nM of the oligomeric compounds ISIS
Numbers 327902 (SEQ ID NO: 320) and 328383 (SEQ ID NO: 492), both targeted against mir-192, and ISIS 327905 (SEQ ID NO: 323), targeting mir-205, and ISIS 328403 (SEQ ID NO: 512), targeting mir-106. Cells treated with increasing concentrations of oligomeric compounds were compared to untreated cells, to assess the dose-dependency of the observed delay or arrest. The random-mer ISIS 29848 was used as a negative control. Cells were prepared for flow cytometry 48-hours after oligonucleotide treatment, as described, supra.

[1] = 150 nM oligomeric compound, 24 hours, relative to untreated control (UTC = 100)
[2] = 150 nM, 48 hours, relative to untreated control

Row | Substance | phase of the cell cycle in which cells arrest or delay (150 nM, 48 hours) | % cells aneuploid [1] [%] | % cells in cell cycle phase G1 [1] [%] | % cells in cell cycle phase G2/M [1] [%] | % cells in cell cycle phase S [1] [%] | % cells in cell cycle phase subG1 [1] [%] | % cells in cell cycle phase: G1 (150 nM oligomeric compound) [%] | % cells in cell cycle phase: G2/M (150 nM oligomeric compound) [%] | % cells in cell cycle phase: S (150 nM oligomeric compound) [%] | % cells in cell cycle phase: aneuploid (150 nM oligomeric compound) [%] | % cells in cell cycle phase: subG1 (150 nM oligomeric compound) [%] | % cells in cell cycle phase G1 [2] [%] | % cells in cell cycle phase G2/M [2] [%] | % cells in cell cycle phase S [2] [%] | % cells in cell cycle phase aneuploid [2] [%] | % cells in cell cycle phase subG1 [2] [%] | phase of the cell cycle in which cells arrest or delay (150 nM, both 24 and 48 hours)
1 | ISIS 341787: SEQ ID NO: 852, targeted against mir-125a (mouse) (CACAGGTTAAAGGGTCTCAGGGA; all 2'-MOE, all phosphorothioate, methylation of C not given here) | arrest or delay in G2/M as well as an increased percentage of cells in the subG1 and aneuploid categories |  |  |  |  |  |  |  |  |  |  |  |  |  |  |  | 
2 | 328780 (antisense eT*eG*eT*e[5mC]*eA*dT*dG*dG*dA*d[5mC]*dA*dG*dG*dA*dT*eG*eA*eA*eT*eA) [compound 328780] |  | 149 | 96 | 136 | 87 | 124 | 83 | 110 | 130 | 133 | 917 |  |  |  |  |  | 
3 | 338756 (antisense TGCCCTGCTCAGAGCCCTAG; all 2'-MOE, all phosphorothioate, methylation of C not given here) [compound 338756] |  | 166 | 147 | 99 | 75 | 137 | 90 | 100 | 121 | 169 | 311 |  |  |  |  |  | 
4 | 338797 (antisense CTGGGGAGGGGGTTAGCGTC; all 2'-MOE, all phosphorothioate, methylation of C not given here) [compound 338797] |  | 193 | 101 | 148 | 79 | 197 | 66 | 168 | 124 | 175 | 813 | 104 | 115 | 89 | 125 | 144 | 
5 | 338833 (antisense TCGTGCACCTGAGGAGTCTG; all 2'-MOE, all phosphorothioate, methylation of C not given here) [compound 338833] |  | 185 | 150 | 142 | 56 | 232 | 44 | 258 | 106 | 154 | 1091 | 87 | 136 | 100 | 136 | 255 | 
6 | 338713 (antisense ACCTCTCAGGAAGACGGACT; all 2'-MOE, all phosphorothioate, methylation of C not given here) [compound 338713] |  | 187 | 152 | 101 | 72 | 93 | 95 | 109 | 104 | 194 | 426 |  |  |  |  |  | 
7 | 328707 (eG*e[5mC]*eA*eA*e[5mC]*dA*dG*dG*d[5mC]*d[5mC]*dT*d[5mC]*dA*dA*dT*eA*eT*e[5mC]*eT*eT) [compound 328707] |  | 166 | 36 | 195 | 93 | 188 | 46 | 213 | 134 | 155 | 1486 | 103 | 122 | 87 | 140 | 125 | 
8 | ISIS 328707: SEQ ID NO: 616, targeting miR-100-1 (eG*e[5mC]*eA*eA*e[5mC]*dA*dG*dG*d[5mC]*d[5mC]*dT*d[5mC]*dA*dA*dT*eA*eT*e[5mC]*eT*eT) |  |  |  |  |  |  |  |  |  |  |  |  |  |  |  |  | G2/M-phase
9 | GCCAAGGCGTGACATGATAT (chemistry not given here) [ISIS 25691, 5-10-5 2′-MOE gapmer PS targeted to Drosha RNase III mRNA] | increased percentage of cells in S-phase as well as a significant percentage of cells in the subG1 and aneuploid categories |  |  |  |  |  |  |  |  |  |  |  |  |  |  |  | 
10 | 328674 (eT*eG*e[5mC]*e[5mC]*e[5mC]*dT*dG*d[5mC]*dT*d[5mC]*dA*dG*dA*dG*d[5mC]*e[5mC]*e[5mC]*eT*eA*eG; antisense) [compound 328674] |  | 69 | 125 | 84 | 93 | 564 | 69 | 109 | 160 | 134 | 1663 |  |  |  |  |  | 

— US8178506B2, “Oligomeric compounds and compositions for use in modulation of small non-coding RNAs” (Regulus Therapeutics Inc., priority 2003, dated 2012)
